The text below walks through data of ChEMBL document CHEMBL1221410, “Antioxidant flavone glycosides from the leaves of Fargesia robusta” (J Nat Prod, 2010).

A short description of assay [1]: Antioxidant activity against AAPH-induced lipid peroxidation assessed as trolox equivalent of peroxy radical scavenging activity after 10 mins by ORAC assay. Format: functional.
The nature of assay [2]: Antioxidant activity assessed as trolox equivalent of ABTS radical scavenging activity after 12 to 16 hrs by spectrophotometry. Format: functional.

For the compound `O=c1c(O)c(-c2ccc(O)c(O)c2)oc2cc(O)cc(O)c12`, the Activity in assay [1] turned out to be 8.7; in assay [2] it was 3.99.

For the compound `C[C@@H]1O[C@@H](O[C@@H]2C(=O)[C@H](O)[C@@H](C)O[C@H]2c2c(O)cc3oc(-c4ccc(O)c(O)c4)cc(=O)c3c2O)[C@H](O)[C@H](O)[C@H]1O`, the results for the Activity in assay [1] and in assay [2] were 5.7 and 0.646, respectively.

For the compound `C[C@H]1O[C@@H](c2c(O[C@@H]3O[C@H](CO)[C@@H](O)[C@H](O)[C@H]3O)cc3oc(-c4ccc(O)c(O)c4)cc(=O)c3c2O)C[C@H](O)[C@H]1O`, the figures for the Activity in assay [1] and in assay [2] were 26.8 and 0.332, respectively.

Turning to `C[C@H]1O[C@@H](c2c(O)cc3oc(-c4ccc(O[C@@H]5O[C@H](CO)[C@@H](O)[C@H](O)[C@H]5O)c(O)c4)cc(=O)c3c2O)C[C@H](O)[C@H]1O`, the figures for the Activity in assay [1] and in assay [2] were 8.3 and 0.075, respectively.

`COc1cc(-c2cc(=O)c3c(O[C@@H]4O[C@H](CO)[C@@H](O)[C@H](O)[C@H]4O)cc(O)cc3o2)cc(OC)c1O`: the Activity in assay [1] turned out to be 18.2; in assay [2] it was 0.063.

For the compound `O=c1cc(-c2ccc(O)c(O)c2)oc2cc(O)c([C@@H]3O[C@H](CO)[C@@H](O)[C@H](O)[C@H]3O)c(O)c12`, the results for the Activity in assay [1] and in assay [2] were 66.5 and 1.56, respectively.
